The values that follow come from patent US20240217960A1, “TRIAZINE DERIVATIVE AS COVALENT INHIBITORS OF PI3K” (UNIVERSITÄT BASEL, priority 2021, published 2024).

A short description of data set [1]: Intrinsic reactivity of the inhibitors (kchem) with βME measured with HPLC. Format: physicochemical. To be noted: 1 mM inhibitor + 600 mM βME, n = 3.
Data set [2] can be described thus: PBS solubility. Format: physicochemical. To be noted: aqueous buffer, pH 7.4, 3 independent measurements.
Data set [3] is described as follows: Experimental LogD. Format: physicochemical. The note with it: pH 7.4; 3 independent measurements.
Data set [4] concerns pSer473 of PKB/Akt in SKOV3 cells. The data set is described as follows: In Cell Western cellular PI3K signaling and IC50 determination. Type of data set: cell-based. To be noted: Homo sapiens, SK-OV-3; SKOV3 cells; 2 or 3 independent measurements; read-out: IC50 pPKB (S473) SKOV3. Here is the method:
Protein phosphorylation was detected as follows: pSer473 of PKB/Akt with rabbit polyclonal antibody from Cell Signaling Technology (CST) (#4058) by In-Cell Western assays, where 1.2×10^4 SKOV3 cells/well in 96-well plates were plated (Cell Carrier, PerkinElmer) for 24 hours (37° C., 5% CO2), as described in Ref. ^25.

Data set [5] deals with p110α (PI3Kα) (Homo sapiens, UniProt P42336). The data set is described as follows: Determination of kinetic constants (kinact, Ki) for p110α by LanthaScreen Technology. To be noted: for Ki: dissociation constant of the first reversible binding, read-out: Ki PI3Kα; for Ki / kinact: global fitting with KinTek; for kinact: maximum potential rate of covalent bond formation, read-out: kinact PI3Kα; for kinact/KI: read-out: kinact/Ki PI3Kα. Type of data set: binding. A general note: TR-FRET usually uses a lanthanide donor and a delayed reading to cut background.
Procedure: Maximum potential rate of covalent bond formation (kinact) and dissociation constant of the first reversible binding (Ki) of compounds for p110α were determined by LanthaScreen Technology (Life Technologies). The calculation of kinetic parameters was carried out through global fitting for numerical integration by using KinTek Global Kinetic Explorer modelling software^26-31.

Values after ≈ are worked out from the molar mass of the structure shown.

p110α (PI3Kα), sequence (P42336 whole entry): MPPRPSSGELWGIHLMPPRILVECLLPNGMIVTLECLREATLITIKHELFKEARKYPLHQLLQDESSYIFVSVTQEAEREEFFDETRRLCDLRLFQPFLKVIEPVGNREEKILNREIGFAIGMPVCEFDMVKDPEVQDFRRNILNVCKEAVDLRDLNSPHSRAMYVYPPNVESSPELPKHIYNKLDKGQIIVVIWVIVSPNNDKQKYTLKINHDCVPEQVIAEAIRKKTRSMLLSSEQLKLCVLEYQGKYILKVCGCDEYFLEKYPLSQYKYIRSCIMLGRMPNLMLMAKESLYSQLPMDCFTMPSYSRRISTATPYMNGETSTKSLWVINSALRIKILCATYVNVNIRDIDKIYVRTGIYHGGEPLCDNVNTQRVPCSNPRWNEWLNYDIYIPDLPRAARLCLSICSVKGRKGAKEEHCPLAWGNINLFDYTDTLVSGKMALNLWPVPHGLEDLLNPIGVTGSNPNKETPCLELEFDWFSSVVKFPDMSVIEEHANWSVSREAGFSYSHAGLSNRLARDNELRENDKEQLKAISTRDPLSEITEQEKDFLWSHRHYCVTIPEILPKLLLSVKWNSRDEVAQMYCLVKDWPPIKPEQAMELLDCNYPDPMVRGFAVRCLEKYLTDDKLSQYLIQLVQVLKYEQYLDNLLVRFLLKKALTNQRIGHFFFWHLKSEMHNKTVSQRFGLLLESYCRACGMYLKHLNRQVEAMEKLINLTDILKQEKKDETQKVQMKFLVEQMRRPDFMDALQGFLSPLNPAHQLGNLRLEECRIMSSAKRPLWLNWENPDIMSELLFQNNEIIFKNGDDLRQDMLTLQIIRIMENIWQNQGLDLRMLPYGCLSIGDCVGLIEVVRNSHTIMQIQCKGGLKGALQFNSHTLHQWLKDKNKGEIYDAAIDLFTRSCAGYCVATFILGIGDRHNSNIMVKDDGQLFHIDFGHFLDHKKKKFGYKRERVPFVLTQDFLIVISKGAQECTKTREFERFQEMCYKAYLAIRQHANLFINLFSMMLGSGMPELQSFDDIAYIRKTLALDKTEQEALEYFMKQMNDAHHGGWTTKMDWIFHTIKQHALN
p110α (PI3Kα), sequence (P27986 whole entry partner): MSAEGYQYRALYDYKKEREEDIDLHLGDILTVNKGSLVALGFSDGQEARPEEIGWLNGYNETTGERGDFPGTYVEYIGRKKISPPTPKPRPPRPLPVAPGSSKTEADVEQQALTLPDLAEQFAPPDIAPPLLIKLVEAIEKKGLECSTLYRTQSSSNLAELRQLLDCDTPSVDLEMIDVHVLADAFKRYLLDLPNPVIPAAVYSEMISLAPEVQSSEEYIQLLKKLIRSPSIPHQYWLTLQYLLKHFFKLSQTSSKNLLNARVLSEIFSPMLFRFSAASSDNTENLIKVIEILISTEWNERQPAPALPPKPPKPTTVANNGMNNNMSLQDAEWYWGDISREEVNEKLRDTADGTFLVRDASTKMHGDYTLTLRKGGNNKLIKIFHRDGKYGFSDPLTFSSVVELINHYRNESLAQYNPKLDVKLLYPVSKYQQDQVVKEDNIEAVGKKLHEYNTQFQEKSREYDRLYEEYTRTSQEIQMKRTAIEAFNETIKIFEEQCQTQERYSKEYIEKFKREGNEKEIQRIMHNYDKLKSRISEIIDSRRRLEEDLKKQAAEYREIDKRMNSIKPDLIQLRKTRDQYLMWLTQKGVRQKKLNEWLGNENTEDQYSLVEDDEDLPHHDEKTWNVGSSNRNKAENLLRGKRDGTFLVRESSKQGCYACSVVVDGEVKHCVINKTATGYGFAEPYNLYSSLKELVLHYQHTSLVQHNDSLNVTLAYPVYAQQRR

The term solubility denotes the concentration that dissolves in the medium under given conditions. Higher therefore signals a readily soluble substance. In general, logD refers to lipophilicity at a set pH, counting ionised and neutral species. Read a low logD as a more hydrophilic compound. For `C=CC(=O)N1CCC(CCCC(=O)N2CCN(c3nc(-c4cnc(N)nc4C(F)F)nc(N4CCOCC4)n3)CC2)CC1` [Compound 41, 4-(1-acryloylpiperidin-4-yl)-1-(4-(4-(2-amino-4-(difluoromethyl)pyrimidin-5-yl)-6-morpholino-1,3,5-triazin-2-yl)piperazin-1-yl)butan-1-one], the “kchem (intrinsic reactivity of the inhibitors)” value in data set [1] stood at 0.000225 M⁻¹ s⁻¹. The molecule also returned a solubility in data set [2] of 243 µM (≈ 146 µg/mL). This molecule displayed a pH-dependent lipophilicity (logD) in data set [3] of 2.67.

For the molecule `CC(C)=CC(=O)CCC(=O)N1CCN(Cc2cc3nc(-c4cccc5[nH]ncc45)nc(N4CCOCC4)c3s2)CC1` [CNX-1351, 1-[4-[[2-(1H-indazol-4-yl)-4-(4-morpholinyl)thieno[3,2-d]pyrimidin-6-yl]methyl]-1-piperazinyl]-6-methyl-5-heptene-1,4-dione, reference compound], the “kchem (intrinsic reactivity of the inhibitors)” value in data set [1] was 0.000222 M⁻¹ s⁻¹. The concentration in solution in data set [2] (solubility) was 10 µM (≈ 5.74 µg/mL). In data set [3], the logD was found to be 3.96.

Broadly, the IC50 is the point on the concentration scale where inhibition reaches its midpoint. A word on the Ki: it is the equilibrium dissociation constant of an inhibitor or competing ligand from its target. A word on the kinact: it is the rate constant of inactivation at saturating inhibitor. Turning to `C=CC(=O)N1CCC(Cc2cccc(C(=O)N3CCN(c4nc(-c5cnc(N)nc5C(F)F)nc(N5CCOCC5)n4)CC3)c2)CC1` [Compound 101, 1-(4-(3-(4-(4-(2-amino-4-(difluoromethyl)pyrimidin-5-yl)-6-morpholino-1,3,5-triazin-2-yl)piperazine-1-carbonyl)benzyl)piperidin-1-yl)prop-2-en-1-one], in data set [4], the IC50 worked out at 0.043 µM. Also, the “kchem (intrinsic reactivity of the inhibitors)” value in data set [1] came to 0.00029 M⁻¹ s⁻¹. This molecule also registered a solubility in data set [2] of 46 µM (≈ 29.8 µg/mL). Besides, in data set [5], the inhibition constant Ki came out at 0.0105 µM, the kinact came out at 0.00015 s⁻¹ and the kinact/KI amounted to 14300 M⁻¹ s⁻¹. The molecule also returned a log distribution coefficient (logD) in data set [3] of 2.66.

For `C=CC(=O)N1CCC(C(=O)NCCN2CCN(c3nc(-c4cnc(N)nc4C(F)F)nc(N4CCOCC4)n3)CC2)CC1` [Compound 62, 1-acryloyl-N-(2-(4-(4-(2-amino-4-(difluoromethyl)pyrimidin-5-yl)-6-morpholino-1,3,5-triazin-2-yl)piperazin-1-yl)ethyl)piperidine-4-carboxamide], in data set [4], the IC50 stood at 0.082 µM. Also, the “kchem (intrinsic reactivity of the inhibitors)” value in data set [1] was found to be 0.000518 M⁻¹ s⁻¹. In addition, in data set [2], the solubility amounted to 393 µM (≈ 236 µg/mL). In data set [5], the Ki is 0.0162 µM, the maximal inactivation rate constant (kinact) was determined as 0.000187 s⁻¹ and the kinact/KI was 11600 M⁻¹ s⁻¹. Also, in data set [3], the logD was 1.4.

As for `C=CC(=O)N1CCC(COCC(=O)N2CCN(c3nc(-c4cnc(N)nc4C(F)F)nc(N4CCOCC4)n3)CC2)CC1` [Compound 61, 1-(4-((2-(4-(4-(2-amino-4-(difluoromethyl)pyrimidin-5-yl)-6-morpholino-1,3,5-triazin-2-yl)piperazin-1-yl)-2-oxoethoxy)methyl)piperidin-1-yl)prop-2-en-1-one], the “kchem (intrinsic reactivity of the inhibitors)” value in data set [1] was 0.00029 M⁻¹ s⁻¹. The amount in solution in data set [2] (solubility) came to 381 µM (≈ 230 µg/mL). In addition, the pH-dependent lipophilicity (logD) in data set [3] amounted to 1.7.

With `C=CC(=O)N1CCC(C(=O)NCCCC(=O)N2CCN(c3nc(-c4cnc(N)nc4C(F)F)nc(N4CCOCC4)n3)CC2)CC1` [Compound 51, 1-acryloyl-N-(4-(4-(4-(2-amino-4-(difluoromethyl)pyrimidin-5-yl)-6-morpholino-1,3,5-triazin-2-yl)piperazin-1-yl)-4-oxobutyl)piperidine-4-carboxamide], the IC50 in data set [4] came to 0.686 µM. Also, the “kchem (intrinsic reactivity of the inhibitors)” value in data set [1] came out at 0.000437 M⁻¹ s⁻¹. In data set [5], the Ki amounted to 0.0106 µM, the kinact was determined as 0.000195 s⁻¹ and the kinact/KI was 18800 M⁻¹ s⁻¹.

For the molecule `C=CC(=O)N1CCC(C(=O)NCCC(=O)N2CCN(c3nc(-c4cnc(N)nc4C(F)F)nc(N4CCOCC4)n3)CC2)CC1` [Compound 48, 1-acryloyl-N-(3-(4-(4-(2-amino-4-(difluoromethyl)pyrimidin-5-yl)-6-morpholino-1,3,5-triazin-2-yl)piperazin-1-yl)-3-oxopropyl)piperidine-4-carboxamide], the IC50 in data set [4] worked out at 0.664 µM. Further, the “kchem (intrinsic reactivity of the inhibitors)” value in data set [1] stood at 0.000452 M⁻¹ s⁻¹. Further, in data set [5], the Ki turned out to be 0.0141 µM, the kinact was found to be 0.000253 s⁻¹ and the kinact/KI amounted to 18000 M⁻¹ s⁻¹.

For `CC(C)=CC(=O)CCCCC(=O)N1CCN(c2nc(-c3cnc(N)nc3C(F)F)nc(N3CCOCC3)n2)CC1` [Compound 5, 1-(4-(4-(2-amino-4-(difluoromethyl)pyrimidin-5-yl)-6-morpholino-1,3,5-triazin-2-yl)piperazin-1-yl)-8-methylnon-7-ene-1,6-dione], the IC50 in data set [4] was determined as 0.0528 µM. Moreover, in data set [1], the “kchem (intrinsic reactivity of the inhibitors)” value came out at 0.00022 M⁻¹ s⁻¹. In data set [5], the Ki was 0.0101 µM, the kinact worked out at 0.000187 s⁻¹ and the kinact/KI worked out at 18700 M⁻¹ s⁻¹.
